Values quoted from earlier work as cited in patent US20080152724A1, “TREATMENT OF PER[…] AN […] RELEASE IODINE” (priority 2006, published 2008).

System: test strains
Details: all of the test strains; after 30 seconds of exposure

SMILES: N=C(NCCCCCCNC(=N)NC(=N)Nc1ccc(Cl)cc1)NC(=N)Nc1ccc(Cl)cc1.O=C(O)[C@H](O)[C@@H](O)[C@H](O)[C@H](O)CO.O=C(O)[C@H](O)[C@@H](O)[C@H](O)[C@H](O)CO [chlorhexidine gluconate]
- bactericidal activity: residual bacteria were observed in most species
